Patent US7790884B2, “Acylaminopiperidine compound” (Astellas Pharma Inc., priority 2006, dated 2010)
Structures can show the parent of a compound that is named as a salt.

The compounds below were run against T1, human CCR4 (Homo sapiens, UniProt P51679) (assay: [35S]GTPγS binding test via CCR4 (human MDC-stimulated, human CCR4 expressing cell line membrane fraction)). Conditions: membrane fraction of human CCR4 expressing B300-16 cells, room temperature 1 hour 30 minutes, read-out: inhibitory activity value (IC50).
T1 construct: expressed in transfected cells; membrane fraction used
T1 sequence (P51679 1-360): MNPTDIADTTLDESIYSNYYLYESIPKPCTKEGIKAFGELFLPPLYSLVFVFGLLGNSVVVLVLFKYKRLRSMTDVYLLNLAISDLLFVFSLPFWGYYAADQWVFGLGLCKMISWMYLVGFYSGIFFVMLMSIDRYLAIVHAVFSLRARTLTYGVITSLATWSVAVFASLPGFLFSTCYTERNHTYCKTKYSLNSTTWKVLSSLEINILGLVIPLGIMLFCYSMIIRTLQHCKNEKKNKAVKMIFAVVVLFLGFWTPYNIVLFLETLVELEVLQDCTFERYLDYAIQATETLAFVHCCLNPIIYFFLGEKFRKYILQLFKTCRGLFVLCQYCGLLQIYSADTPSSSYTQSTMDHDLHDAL
Assay type: biochemical
Description: Action for [^35S]GTPγS Binding Test Via CCR4 (1) Preparation of Human CCR4 Expressing Cell Line A vector (contains a neomycin-resistance gene) in which human CCR4 gene was inserted into downstream of the EF-1α promoter was prepared and transfected into a mouse pre B cell line B300-16 cells by electroporation. These cells were cultured using a G-418-supplemented medium, and a single cell line capable of producing human CCR4 constantly and stably was obtained by the limiting dilution method. (2) Preparation of Human CCR4 Expressing Cell Line Membrane Fraction The human CCR4 expressing cells were recovered, washed with PBS and then suspended in a lysis buffer (10 mM HEPES pH 7.5, 2 mM EDTA, proteinase inhibitor). After allowing the suspension to stand on ice for 15 minutes, the cells were disintegrated using a homogenizer and centrifuged (2000 rpm, 10 min, 4° C.). The supernatant was further subjected to ultracentrifugation (22 K, 30 min, 4° C.), and then the pellet was suspended in PBS and used in the subsequent test. (3) GTPγS Binding Test In a reaction mixture liquid containing 20 mM of HEPES pH 7.05, 100 mM of NaCl, 5 mM of MgCl2, 2 μM of GDP, human MDC, […] of [^35S]GTPγS, 1 mg of wheat germ agglutinin SPA beads and 1 μg of the human CCR4 expressing cell line membrane fraction, respective concentration of the test compound was allowed to undergo the reaction at room temperature for 1 hour and 30 minutes, and the radioactivity was measured.

IC50, ≤ 100 nM:
COc1cc2nc(N3CCC(N(C)C(=O)[C@@H]4CCCN4)CC3)nc(Nc3ccc(Cl)cc3F)c2cc1OC [Example 2, N-(1-{4-[(4-chloro-2-fluorophenyl)amino]-6,7-dimethoxyquinazolin-2-yl}piperidin-4-yl)-N-methyl-L-prolinamide dihydrochloride]
CN(C(=O)[C@@H]1CCCN1)C1CCN(c2nc(Nc3ccc(Cl)cc3F)c3ccc(C#N)cc3n2)CC1 [Example 5]
COc1cc2nc(N3CCC(N(C)C(=O)[C@@H]4CCCN4C)CC3)nc(Nc3ccc(Cl)cc3F)c2cc1F [Example 6]
CN(C(=O)[C@@H]1CCCN1C)C1CCN(c2nc(Nc3ccc(Cl)cc3F)c3cc(Br)ccc3n2)CC1 [Example 7]
CCN(C(=O)[C@@H]1CCCN1)C1CCN(c2nc(Nc3ccc(Cl)cc3F)c3cc(OC)c(OC)cc3n2)CC1 [Example 9]
COc1cc2nc(N3CCC(N(C)C(=O)[C@H]4CCCN4)CC3)nc(Nc3ccc(Cl)cc3F)c2cc1OC [Example 10]
CCN(C(=O)[C@H]1CCCN1)C1CCN(c2nc(Nc3ccc(Cl)cc3F)c3cc(OC)c(OC)cc3n2)CC1 [Example 12]
COc1cc2nc(N3CCC(N(C(=O)[C@@H]4CCCN4)C4CC4)CC3)nc(Nc3ccc(Cl)cc3F)c2cc1OC [Example 13]
CN(C(=O)[C@@H]1CCCN1C)C1CCN(c2nc(Nc3ccc(Cl)cc3F)c3ccc(C#N)cc3n2)CC1 [Example 15]
COc1cc2nc(N3CCC(N(C(=O)[C@@H]4CCCN4)C4CCC4)CC3)nc(Nc3ccc(Cl)cc3F)c2cc1OC [Example 16]
COc1cc2nc(N3CCC(N(C(=O)[C@H]4CCCN4)C4CCC4)CC3)nc(Nc3ccc(Cl)cc3F)c2cc1OC [Example 17]
COc1cc2nc(N3CCC(N(C)C(=O)[C@H]4CCCN4C)CC3)nc(Nc3ccc(Cl)cc3F)c2cc1OC [Example 19]
COc1cc2nc(N3CCC(N(C(=O)[C@@H]4CCCN4C)C4CC4)CC3)nc(Nc3ccc(Cl)cc3F)c2cc1OC [Example 20]
COc1cc2nc(N3CCC(N(C(=O)[C@H]4CCCN4C)C4CC4)CC3)nc(Nc3ccc(Cl)cc3F)c2cc1OC [Example 21]
CN(C(=O)[C@H]1CCCN1C)C1CCN(c2nc(Nc3ccc(Cl)cc3F)c3cc(Br)ccc3n2)CC1 [Example 22]
CCN(C(=O)[C@H]1CCCN1C)C1CCN(c2nc(Nc3ccc(Cl)cc3F)c3ccc(C#N)cc3n2)CC1 [Example 24]
CCN(C(=O)[C@H]1CCCN1C)C1CCN(c2nc(Nc3ccc(Cl)cc3F)c3cc(OC)c(OC)cc3n2)CC1 [Example 26]
CN(C(=O)[C@H]1CCCN1)C1CCN(c2nc(Nc3ccc(Cl)cc3F)c3cc(Br)ccc3n2)CC1 [Example 27]
CCN(C(=O)[C@H]1CCCN1)C1CCN(c2nc(Nc3ccc(Cl)cc3F)c3ccc(C#N)cc3n2)CC1 [Example 28]
CN(C(=O)[C@@H]1CCCN1)C1CCN(c2nc(Nc3ccc(Cl)cc3F)c3cc(F)ccc3n2)CC1 [Example 29]
CN(C(=O)[C@H]1CCCN1)C1CCN(c2nc(Nc3ccc(Cl)cc3F)c3cc(F)ccc3n2)CC1 [Example 30]
CN(C(=O)[C@@H]1CCCN1C)C1CCN(c2nc(Nc3ccc(Cl)cc3F)c3cc(F)ccc3n2)CC1 [Example 31]
CN(C(=O)[C@H]1CCCN1C)C1CCN(c2nc(Nc3ccc(Cl)cc3F)c3cc(F)ccc3n2)CC1 [Example 32]
CCN(C(=O)[C@H]1CCCN1)C1CCN(c2nc(Nc3ccc(Cl)cc3F)c3cc(F)ccc3n2)CC1 [Example 33]
COc1cc2c(Nc3ccc(Cl)cc3F)nc(N3CCC(N(C)C(=O)[C@H]4CCCN4)CC3)nc2cc1F [Example 35]
COc1cc2c(Nc3ccc(Cl)cc3F)nc(N3CCC(N(C)C(=O)[C@@H]4CCCN4C)CC3)nc2cc1F [Example 36]
COc1cc2c(Nc3ccc(Cl)cc3F)nc(N3CCC(N(C)C(=O)[C@H]4CCCN4C)CC3)nc2cc1F [Example 37]
CN(C(=O)[C@@H]1CCCN1)C1CCN(c2nc(Nc3ccc(Cl)cc3)c3cc(F)ccc3n2)CC1 [Example 38]
CN(C(=O)[C@H]1CCCN1)C1CCN(c2nc(Nc3ccc(Cl)cc3)c3cc(F)ccc3n2)CC1 [Example 39]
CCN(C(=O)[C@H]1CCCN1)C1CCN(c2nc(Nc3ccc(Cl)cc3)c3cc(F)ccc3n2)CC1 [Example 40]
CN(C(=O)[C@@H]1CCCN1C)C1CCN(c2nc(Nc3ccc(Cl)cc3)c3cc(F)ccc3n2)CC1 [Example 41]
CN(C(=O)[C@@H]1CCCN1)C1CCN(c2nc(Nc3ccc(Cl)cc3)c3cc(Br)ccc3n2)CC1 [Example 43]
CN(C(=O)[C@H]1CCCN1)C1CCN(c2nc(Nc3ccc(Cl)cc3)c3cc(Br)ccc3n2)CC1 [Example 44]
CCN(C(=O)[C@H]1CCCN1)C1CCN(c2nc(Nc3ccc(Cl)cc3)c3cc(Br)ccc3n2)CC1 [Example 45]
CN(C(=O)[C@@H]1CCCN1C)C1CCN(c2nc(Nc3ccc(Cl)cc3)c3cc(Br)ccc3n2)CC1 [Example 46]
CN(C(=O)[C@H]1CCCN1C)C1CCN(c2nc(Nc3ccc(Cl)cc3)c3cc(Br)ccc3n2)CC1 [Example 47]
CCN(C(=O)[C@@H]1CCCN1)C1CCN(c2nc(Nc3ccc(Cl)cc3F)c3cc(F)ccc3n2)CC1 [Example 48]
CCN(C(=O)[C@@H]1CCCN1C)C1CCN(c2nc(Nc3ccc(Cl)cc3F)c3cc(F)ccc3n2)CC1 [Example 49]
CCN(C(=O)[C@H]1CCCN1C)C1CCN(c2nc(Nc3ccc(Cl)cc3F)c3cc(F)ccc3n2)CC1 [Example 50]
CCN(C(=O)[C@@H]1CCCN1C)C1CCN(c2nc(Nc3ccc(Cl)cc3)c3cc(F)ccc3n2)CC1 [Example 51]
CCN(C(=O)[C@@H]1CCCN1)C1CCN(c2nc(Nc3ccc(Cl)cc3)c3cc(F)ccc3n2)CC1 [Example 53]
CN(C(=O)[C@@H]1CCCN1)C1CCN(c2nc(Nc3ccc(Cl)cc3F)c3cc(Br)ccc3n2)CC1 [Example 54]
CCN(C(=O)[C@@H]1CCCN1)C1CCN(c2nc(Nc3ccc(Cl)cc3F)c3cc(Br)ccc3n2)CC1 [Example 55]
CCN(C(=O)[C@H]1CCCN1)C1CCN(c2nc(Nc3ccc(Cl)cc3F)c3cc(Br)ccc3n2)CC1 [Example 56]
CCN(C(=O)[C@@H]1CCCN1C)C1CCN(c2nc(Nc3ccc(Cl)cc3F)c3cc(Br)ccc3n2)CC1 [Example 57]
CCN(C(=O)[C@H]1CCCN1C)C1CCN(c2nc(Nc3ccc(Cl)cc3F)c3cc(Br)ccc3n2)CC1 [Example 58]
CCN(C(=O)[C@@H]1CCCN1C)C1CCN(c2nc(Nc3ccc(Cl)cc3)c3cc(Br)ccc3n2)CC1 [Example 59]
CCN(C(=O)[C@H]1CCCN1C)C1CCN(c2nc(Nc3ccc(Cl)cc3)c3cc(Br)ccc3n2)CC1 [Example 60]
COc1cc2nc(N3CCC(N(C)C(=O)[C@@H]4CCCN4)CC3)nc(Nc3ccc(Cl)cc3F)c2cc1F [Example 61]
COc1cc2nc(N3CCC(N(C)C(=O)[C@H]4CCCN4)CC3)nc(Nc3ccc(Cl)cc3F)c2cc1F [Example 62]
CCN(C(=O)[C@@H]1CCCN1)C1CCN(c2nc(Nc3ccc(Cl)cc3F)c3cc(F)c(OC)cc3n2)CC1 [Example 63]
CCN(C(=O)[C@@H]1CCCN1)C1CCN(c2nc(Nc3ccc(Cl)cc3)c3cc(Br)ccc3n2)CC1 [Example 64]
CCN(C(=O)[C@H]1CCCN1)C1CCN(c2nc(Nc3ccc(Cl)cc3F)c3cc(F)c(OC)cc3n2)CC1 [Example 65]
COc1cc2nc(N3CCC(N(C)C(=O)[C@H]4CCCN4C)CC3)nc(Nc3ccc(Cl)cc3F)c2cc1F [Example 66]
